Here are results for four compounds from US4966962A, “Reverse analogue of actinomycin D” (Trustees of Boston University, priority 1988, dated 1990).

The test system of data set [1] is P388/S (adriamycin sensitive) leukemia. The experiment in a line: Antitumor activity in vivo, P388/S leukemia. Details: species or system mice. The following applies: P388/S, at optimal dose, ip days 1, 5, 9. How it is done: The analogues were tested for their antitumor activities in P388 lymphocytic leukemia in male BDF1 mice.
^a Male CDF1 mic inoculated ip: 10^6 cells inoculum, day 0.
Drugs administered in 10% dimethyl sulfoxidesaline on days 1, 5, and 9. %
ILS = percent increase in life span. Fractions in parentheses = tumor fre
survivors/total on day 60^b. P388/S (adriamycin sensitive) and
P388/ADR (adriamycin resistant) tumors were evaluated in the same
experiment with agent listed.

In data set [2] the test system is P388/ADR (adriamycin resistant) leukemia. The experiment in a line: Antitumor activity in vivo, P388/ADR leukemia. The conditions noted are these: at optimal dose, ip days 1, 5, 9. Details: species or system mice. How it is done: The analogues were also tested against P388/ADR murine leukemia following the standard protocol (Table VI).
ILS = percent increase in life span.

The subject of data set [3] is colon 38 adenocarcinoma. Briefly: Activity against advanced colon carcinoma C38 tumor. The format is in vivo, CDF1 mice. The conditions noted are these: for % inhibn of tumor: tumors measured day 21. As for the experimental part:
In view of favorable activity agianst colon 26 carcinoma, further experiments using the active analogues were carried out on the advanced colon adenocarcinomas of mouse colon 38. […] The superiority of RAD III and SAD over AMD in inhibiting colon 38 carcinoma is evident from the data of both tumor weight inhibition and increases in survival time of the treated over nontreated mice and the larger number of long-term survivors produced by these analogues.
^a CDF1 mice were injected sc with colon 38 adenocarcinoma
fragments (70 mg) and treated with drugs with iv injections on day 1, 5,
and 9 following tumor imoplantation on day 0. ^b [100 (tumor weight o
treated mice/tumor weight of untreated mice)] × 100; data pooled
from two experiments, tumors measured on day 21 after implantation ^c
(Median survival time of treated mice/median survival of untreated mice)
× 100; in parenthesis, number of over 100 day survivors/number of […]

Data set [4] can be described thus: Toxic deaths in nontumored mice treated in parallel (colon 38 experiment). The format is in vivo. The source says:
× 100; in parenthesis, number of over 100 day survivors/number of
mice in a group of nontumored mice treated in parallel with the
tumorbearing mice and observed for 100 days.

In data set [5] the test system is CX-1 human colon adenocarcinoma. The experiment in a line: Chemotherapy of human colon CX-1 tumor heterotransplanted in nude mice. The format is in vivo, human tumor in athymic mice. The conditions noted are these: for % T/C, optimal: TST 15, observed day 22. How it is done:
Tables XI and XII show the effectiveness of SAD (2) and RAD (3b and 3c) against CX-1 human colon adenocarcinoma heterotransplanted into athymic mice, with three iv treatments with drugs on a weekly schedule starting on the 15th day of tumor transplant. AMD and the analogues were tested at doses of 45 and 60 ug/kg.
^a -, % T/C high than 50%; ±, % T/C close to 50%; +, % T/C from 50
to 35%; ++, % T/C from 35% to 20%; +++, % T/C lower than 20%; ++++,
regression of the tumor to a volume lower than 10% of the volume at the
start of treatment. ^b Statistically significant as evaluated by the
^a Intravenous treatment, once a week for three weeks; eight mice per
group. ^b TST; number of days between tumor transplant and starting o
treatment. ^c Numbers in parentheses; day of observation after the […]

In data set [6] the test system is mammary MX-1. Briefly: Treatment of mammary MX-1 tumor. The conditions noted are these: at 60 mg/kg. The data set is classed as in vivo.
Data set [7] relates to lung LX-1. The experiment in a line: Treatment of lung LX-1 tumor. The following applies: at 60 mg/kg. The data set is classed as in vivo.
Data set [8] deals with B16 melanoma. The experiment in a line: In vivo antitumor activity against B16 melanoma. The arrangement: species or system BDF1 mice. How it is done: ^a 0.2 mL of 1:5 (weight/volume) brei of B16 melanoma implanted
ip on day 0 in groups of nine BDF1 mice. Drugs administered ip^b
MST (range), median survival time in days (range of days for death of
individual animal). ^c % ILS (surv), percent increase in life span
(survivors on day 65/total injected).

The subject of data set [9] is P388 Leukemia. Briefly: Minimum effective dose in P388 tumor bearing mice. The data set is classed as in vivo. The source says: ^a Drugs administered ip once on days 1, 5, and 9 starting 1 day afte
tumor implantation. Determinations were made from analysis of plotted
logdose response data. ^b MED (minimum effective dose) is the dose
(milligram/killogram) providing an increase in life span of 45% over

The nature of data set [10]: Maximum tolerated dose (LD10) in tumor-free male mice. The conditions noted are these: ip days 1, 5, 9; deaths observed during 21 days; from plot of log dose vs percent mortality. As for the experimental part:
The analogues were also tested in tumor-free male mice for their LD10 values (Table XIV). The animals were given a broad range of doses (ip) on days 1, 5, and 9. The maximum tolerated doses of AMD and the analogues that caused death in only 10% of the tested animals in 21 days (i.e., LD10) were recorded as MTD. […] On the basis of these values, the calculated therapeutic index values of SAD is 96, and those of RAD I, II, and III are 60, 67, and 70, respectively.
control in P388 tumor bearing mice. ^c MTD (maximum tolerated dose) i
the lethal dose (milligram/kilogram) for 10% normal BDF1 male mice
days). Values were calculated from a plot of log dose vs percent

Data set [11] concerns supercoiled closed-circular pBR322 DNA. Briefly: Cleavage of closed circular pBR322 DNA. The format is biochemical. The following applies: 20° C., 1 h, Na2S2O4, FeCl2. How it is done:
The cleavage of DNA was followed by monitoring of the conversion of supercoiled closed-circular pBR322 DNA to open-circular DNA (analyzed by agarose gel electrophoresis and quantitated by staining with 0.5 ug/mL of ethidium bromide for 30 min and densitometry; (Table II). SAD and RAD show strong DNA-cleaving ability in the presence of sodium hydrosulfite and ferrous chloride. Presumably, sodium hydrosulfite acts as a reducing agent and regenerates Fe(II) from Fe(III) to produce a continuous source of the active metal ion. When the DNA-cleaving reaction with the analogues was performed at 20° C., the ratio of cleaved DNA (open circular form DNA versus closed circular DNA) was almost maximum within 1 h. […] Cleavage of DNA by the analogues is aided by the actinomycin chromopeptide moiety, which acts as a site-specific binder to DNA, and is effected by the aminoquinone function which is chelated to the ferrous ion during the process, and this is the likely candidate which generates the radical species.
Plasmid DNA pBR322 (0.5 ug) was dissolved in /8 μL of a reaction buffer (5 mM […], 10 mM Tris-HCl). To this solution, 1 μL of the 10 mM aqueous solution of the agent containing 1 mM FeCl2 was added. The mixture was incubated for 0.5-2 h at 20° or 37° C. Then, the incubation mixture was mixed with 10 uL of sample loading buffer (50% glycerin in 2 X Boyer's buffer containing 0.01% bromophenol blue). Finally, 5 uL of the mixture was analyzed by 0.7% agarose gel electrophoresis (120 V, Boyer's buffer; the migration distance of bromophenol blue was 5.0 cm). The gel was stained with […] of ethidium bromide and then quantitated by densitometry.
^a Ten microliters of 200 u M pBR322 DNA nucelotides in UM 10 mM
TrisHCl (pH 7.8) and 50 mM NaCl, containing 4 mM Na2 --S2
O4 and 100 μM FeCl2, was incubated with drug concentration a
20° C. for 1 h; the reaction mixture was kept saturated with air
throughout the incubation period.
^b Percentage of DNA was calculated from the amounts of openand
closedcir- cular DNA in the incubation mixture.

Setting [12] is: at optimal dose, ip days 1, 5, 9.

As to `CO[C@@]12[C@H](COC(N)=O)C3=C(C(=O)C(C)=C(N)C3=O)N1C[C@@H]1N[C@@H]12` [mitomycin C], the “tumor free survivors/total on day 60” value in data set [1] is on record as 1/8; in data set [2], 5/8.

Consider `COc1cccc2c1C(=O)c1c(O)c3c(c(O)c1C2=O)C[C@@](O)(C(=O)CO)C[C@@H]3O[C@H]1C[C@H](N)[C@H](O)[C@H](C)O1` [adriamycin], for which the “tumor free survivors/total on day 60” value in data set [1] was 1/8. The “% T/C (median survival time)” value was found to be 103% in data set [3] (dose 2.0 mg/kg iv days 1, 5, 9); 98% in data set [3] (dose 3.0 mg/kg iv days 1, 5, 9); 250% in data set [3] (dose 4.0 mg/kg iv days 1, 5, 9). The “% inhibn of tumor” value came out at 29% in data set [3] (dose 2.0 mg/kg iv days 1, 5, 9); 70% in data set [3] (dose 3.0 mg/kg iv days 1, 5, 9); 93% in data set [3] (dose 4.0 mg/kg iv days 1, 5, 9). In addition, the “over 100 day survivors/number of mice” value in data set [3] (dose 4.0 mg/kg iv days 1, 5, 9) is 5/9. The toxic deaths in data set [4] (dose 2.0 mg/kg iv days 1, 5, 9) is on record as 0/9; in [4] (dose 3.0 mg/kg iv days 1, 5, 9), 0/9; in data set [4] (dose 4.0 mg/kg iv days 1, 5, 9), 3/9; in data set [4] (dose 5.0 mg/kg iv days 1, 5, 9) it was 8/9. The “% T/C, optimal” value in data set [5] (dose 6 × 10^3 μg/kg iv once a week for three weeks) is given as 38%; in [5] (dose 10 × 10^3 μg/kg iv once a week for three weeks) it was 39%. In addition, the “response of CX-1 tumor to treatment (in words)” value in [5] (three iv treatments weekly from 15th day of transplant, at the doses tested) was “ineffective”. Besides, the “response of mammary MX-1 to treatment” value in [6] is recorded as “some positive response”. The “response of lung LX-1 to treatment” value in [7] is reported as “some positive response”.

For `Cc1nc2c(C(=O)N[C@@H]3C(=O)N[C@H](C(C)C)C(=O)N4CCC[C@H]4C(=O)N(C)CC(=O)N(C)[C@@H](C(C)C)C(=O)O[C@@H]3C)c3nc4c(C(=O)N[C@@H]5C(=O)N[C@H](C(C)C)C(=O)N6CCC[C@H]6C(=O)N(C)CC(=O)N(C)[C@@H](C(C)C)C(=O)O[C@@H]5C)c(N)c(=O)c(C)c-4oc3c(C)c2o1` [RAD I (3a)], in data set [8] (setting [12]), the “% ILS” value was determined as 124% and the “survivors on day 65/total injected” value was 6/9. Moreover, the “MST (range), median survival time” value in data set [8] (at optimal dose, ip days 1, 5, 9, range of days of death) is listed as 65(55-62) days. The same compound returned an optimal dose in [8] (ip, days 1, 5, 9) of 300 μg/kg per inj. For the same compound, the “therapeutic index MTD/MED” value in data set [9] (MTD in normal BDF1 mice / MED in P388 tumor bearing mice) worked out at 60. In data set [9] (ip once on days 1, 5, and 9, from plotted log-dose response data), the “MED (minimum effective dose), dose giving 45% increase in life span over control” value was found to be 0.03 milligram/killogram. Besides, in [10], the “MTD (maximum tolerated dose), lethal dose for 10% of normal mice (LD10)” value is listed as 1.80 milligram/kilogram.

On to bleomycin [BLM (bleomycin)], for which the “Percentage of closed circular pBR322 DNA cleaved” value in [11] amounted to 55%; in data set [11] (concn 50 M (so in the source)), 75%; in [11] (concn 100 M (so in the source)) it was 85%.
